The target in this assay is T1, recombinant human GSK3β (Homo sapiens, UniProt P49841).
T1 construct: purchased Dundee University, UK
T1 sequence (P49841 whole entry): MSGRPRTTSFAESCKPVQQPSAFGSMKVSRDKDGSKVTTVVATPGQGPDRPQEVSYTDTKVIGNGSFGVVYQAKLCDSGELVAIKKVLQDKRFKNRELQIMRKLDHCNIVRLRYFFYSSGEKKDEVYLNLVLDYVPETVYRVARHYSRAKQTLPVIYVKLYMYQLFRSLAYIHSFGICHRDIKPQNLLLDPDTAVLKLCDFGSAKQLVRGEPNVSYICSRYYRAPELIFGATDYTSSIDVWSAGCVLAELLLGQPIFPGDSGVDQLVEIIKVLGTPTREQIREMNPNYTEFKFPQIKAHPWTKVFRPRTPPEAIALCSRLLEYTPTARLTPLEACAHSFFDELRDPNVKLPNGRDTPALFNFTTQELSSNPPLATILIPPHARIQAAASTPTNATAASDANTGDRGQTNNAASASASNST
Nature of the assay: GSK3β Scintillation Proximity Assay (ATP competition). The class given is biochemical. As to conditions: recombinant human GSK3β SPA; 1 μM ATP, 1 μM biotinylated peptide substrate; Ki calculated with Km of ATP 20 μM. On the procedure: Determination of ATP Competition in Scintillation Proximity GSK3β Assay.
GSK3β Scintillation Proximity Assay.
The competition experiments were carried out in duplicate with 10 different concentrations of the inhibitors in clear-bottom microtiter plates (Wallac, Finland). A biotinylated peptide substrate, Biotin-Ala-Ala-Glu-Glu-Leu-Asp-Ser-Arg-Ala-Gly-Ser(PO3H2)-Pro-Gln-Leu (AstraZeneca, Lund), was added at a final concentration of 1 μM in an assay buffer containing 1 mU recombinant human GSK3β (Dundee University, UK), 12 mM morpholinepropanesulfonic acid (MOPS), pH 7.0, 0.3 mM EDTA, 0.01% β-mercaptoethanol, 0.004% Brij 35 (a […] detergent), 0.5% glycerol and 0.5 μg BSA/25 μl. The reaction was initiated by the addition of 0.04 μCi [γ-^33P]ATP (Amersham, UK) and unlabelled ATP at a final concentration of 1 μM and assay volume of 25 μl. After incubation for 20 minutes at room temperature, each reaction was terminated by the addition of 25 μl stop solution containing 5 mM EDTA, 50 μM ATP, 0.1% Triton X-100 and 0.25 mg streptavidin coated Scintillation Proximity Assay (SPA) beads (Amersham, UK). After 6 hours the radioactivity was determined in a liquid scintillation counter (1450 MicroBeta Trilux, Wallac). The inhibition curves were analysed by non-linear regression using GraphPad Prism, USA. The Km value of ATP for GSK3β, used to calculate the inhibition constants (Ki) of the various compounds, was 20 μM.
`Cc1ncc(-c2nc(Nc3cncnc3)ncc2F)n1C1CCOCC1` [Example 1, 5-Fluoro-4-[2-methyl-1-(tetrahydro-2H-pyran-4-yl)-1H-imidazol-5-yl]-N-pyrimidin-5-ylpyrimidin-2-amine]: the Ki was 0.22 µM. Under `Cc1ncc(-c2nc(Nc3ccc(CN4CCCCC4)nc3)ncc2F)n1C1CCOCC1` [Example 12, 5-Fluoro-4-[2-methyl-1-(tetrahydro-2H-pyran-4-yl)-1H-imidazol-5-yl]-N-[6-(piperidin-1-ylmethyl)pyridin-3-yl]pyrimidin-2-amine] stands 0.26 µM; under `Cc1ncc(-c2nc(Nc3ccncc3)ncc2F)n1C1CCOCC1` [Example 31, {5-Fluoro-4-[2-methyl-3-(tetrahydro-pyran-4-yl)-3H-imidazol-4-yl]-pyrimidin-2-yl}-pyridin-4-yl-amine], 0.039 µM.

As to `Cc1ncc(-c2nc(Nc3ccc(CN4CCCC4)nc3)ncc2F)n1C1CCOCC1` [Example 19, 5-Fluoro-4-[2-methyl-1-(tetrahydro-2H-pyran-4-yl)-1H-imidazol-5-yl]-N-[6-(pyrrolidin-1-ylmethyl)pyridin-3-yl]pyrimidin-2-amine], the Ki was 0.21 µM. Under `Cc1ncc(-c2nc(NC3CCN(C(=O)Cc4ccccc4)CC3)ncc2F)n1C1CCOCC1` [Example 39, 5-Fluoro-4-[2-methyl-1-(tetrahydro-2H-pyran-4-yl)-1H-imidazol-5-yl]-N-[1-(phenylacetyl)piperidin-4-yl]pyrimidin-2-amine] stands 0.036 µM; under `Cc1ncc(-c2nc(NC3CCN(S(=O)(=O)c4ccccc4)CC3)ncc2F)n1C1CCOCC1` [Example 43, 5-Fluoro-4-[2-methyl-1-(tetrahydro-2H-pyran-4-yl)-1H-imidazol-5-yl]-N-[1-(phenylsulfonyl)piperidin-4-yl]pyrimidin-2-amine], 0.053 µM; under `Cc1ncc(-c2nc(Nc3cncc4ccccc34)ncc2F)n1C1CCOCC1` [Example 30, {5-Fluoro-4-[2-methyl-3-(tetrahydro-pyran-4-yl)-3H-imidazol-4-yl]-pyrimidin-2-yl}-isoquinolin-4-yl-amine], 0.2 µM. The figure for `Cc1ncc(-c2nc(NC3CCN(S(C)(=O)=O)CC3)ncc2F)n1C1CCOCC1` [Example 41, 5-Fluoro-N-[1-(methylsulfonyl)piperidin-4-yl]-4-[2-methyl-1-(tetrahydro-2H-pyran-4-yl)-1H-imidazol-5-yl]pyrimidin-2-amine] is 0.12 µM; for `Cc1ncc(-c2nc(Nc3ccc(CN4CCCC(CO)C4)nc3)ncc2F)n1C1CCOCC1` (stereo not shown) [Example 23, (1-{[5-({5-Fluoro-4-[2-methyl-1-(tetrahydro-2H-pyran-4-yl)-1H-imidazol-5-yl]pyrimidin-2-yl}amino)pyridin-2-yl]methyl}piperidin-3-yl)methanol] it is 0.17 µM. The figure for `CC(=O)c1cncc(Nc2ncc(F)c(-c3cnc(C)n3C3CCOCC3)n2)c1` [Example 2, 1-[5-({5-Fluoro-4-[2-methyl-1-(tetrahydro-2H-pyran-4-yl)-1H-imidazol-5-yl]pyrimidin-2-yl}amino)pyridin-3-yl]ethanone] is 0.049 µM; for `COc1ccnc(Nc2ncc(F)c(-c3cnc(C)n3C3CCOCC3)n2)c1` [Example 6, 5-Fluoro-N-(4-methoxypyridin-2-yl)-4-[2-methyl-1-(tetrahydro-2H-pyran-4-yl)-1H-imidazol-5-yl]pyrimidin-2-amine] it is 1.1 µM. Consider `Cc1ncc(-c2nc(Nc3ccc(CNCCCN4CCCC4=O)nc3)ncc2F)n1C1CCOCC1` [Example 24, 1-[3-({[5-({5-Fluoro-4-[2-methyl-1-(tetrahydro-2H-pyran-4-yl)-1H-imidazol-5-yl]pyrimidin-2-yl}amino)pyridin-2-yl]methyl}amino)propyl]pyrrolidin-2-one], for which the inhibitory constant (Ki) is 0.23 µM. Regarding `COc1cccc(Nc2ncc(F)c(-c3cnc(C)n3C3CCOCC3)n2)n1` [Example 3, 5-Fluoro-N-(6-methoxypyridin-2-yl)-4-[2-methyl-1-(tetrahydro-2H-pyran-4-yl)-1H-imidazol-5-yl]pyrimidin-2-amine], the Ki was 0.53 µM. Under `CC(=O)N1CCC(Nc2ncc(F)c(-c3cnc(C)n3C3CCOCC3)n2)CC1` [Example 35, N-(1-Acetylpiperidin-4-yl)-5-fluoro-4-[2-methyl-1-(tetrahydro-2H-pyran-4-yl)-1H-imidazol-5-yl]pyrimidin-2-amine] stands 0.12 µM; under `Cc1ncc(-c2nc(Nc3ccc(CN4CCCN(C)CC4)nc3)ncc2F)n1C1CCOCC1` [Example 13, 5-Fluoro-N-{6-[(4-methyl-1,4-diazepan-1-yl)methyl]pyridin-3-yl}-4-[2-methyl-1-(tetrahydro-2H-pyran-4-yl)-1H-imidazol-5-yl]pyrimidin-2-amine], 0.29 µM. The figure for `Cc1ncc(-c2nc(Nc3ccc(CN4CCCOCC4)nc3)ncc2F)n1C1CCOCC1` [Example 21, 5-Fluoro-4-[2-methyl-1-(tetrahydro-2H-pyran-4-yl)-1H-imidazol-5-yl]-N-[6-(1,4 oxazepan-4-ylmethyl)pyridin-3-yl]pyrimidin-2-amine] is 0.079 µM; for `Cc1ncc(-c2nc(NC3CCOCC3)ncc2F)n1C1CCOCC1` [Example 34, 5-Fluoro-4-[2-methyl-1-(tetrahydro-2H-pyran-4-yl)-1H-imidazol-5-yl]-N-(tetrahydro-2H-pyran-4-yl)pyrimidin-2-amine] it is 0.087 µM; for `Cc1ncc(-c2nc(Nc3ccc(C(F)(F)F)cn3)ncc2F)n1C1CCOCC1` [Example 4, 5-Fluoro-4-[2-methyl-1-(tetrahydro-2H-pyran-4-yl)-1H-imidazol-5-yl]-N-[5-(trifluoromethyl)pyridin-2-yl]pyrimidin-2-amine] it is 2.6 µM. Under `Cc1ncc(-c2nc(NC3CCN(C(=O)OC(C)(C)C)CC3)ncc2F)n1C1CCOCC1` [Example 33, tert-Butyl 4-({5-fluoro-4-[2-methyl-1-(tetrahydro-2H-pyran-4-yl)-1H-imidazol-5-yl]pyrimidin-2-yl}amino)piperidine-1-carboxylate] stands 0.21 µM; under `Cc1ncc(-c2nc(Nc3ccc(CN4CCC4)nc3)ncc2F)n1C1CCOCC1` [Example 27, N-[6-(Azetidin-1-ylmethyl)pyridin-3-yl]-5-fluoro-4-[2-methyl-1-(tetrahydro-2H-pyran-4-yl)-1H-imidazol-5-yl]pyrimidin-2-amine], 0.33 µM. Turning to `Cc1ncc(-c2nc(NC3CCN(Cc4ccccc4)CC3)ncc2F)n1C1CCOCC1` [Example 37, N-(1-Benzylpiperidin-4-yl)-5-fluoro-4-[2-methyl-1-(tetrahydro-2H-pyran-4-yl)-1H-imidazol-5-yl]pyrimidin-2-amine], the inhibition constant (Ki) is 0.14 µM. Under `CC(=O)N1CCCN(Cc2ccc(Nc3ncc(F)c(-c4cnc(C)n4C4CCOCC4)n3)cn2)CC1` [Example 16, N-{6-[(4-Acetyl-1,4-diazepan-1-yl)methyl]pyridin-3-yl}-5-fluoro-4-[2-methyl-1-(tetrahydro-2H-pyran-4-yl)-1H-imidazol-5-yl]pyrimidin-2-amine] stands 0.075 µM; under `CCN(CCOC)Cc1ccc(Nc2ncc(F)c(-c3cnc(C)n3C3CCOCC3)n2)cn1` [Example 28, N-(6-{[Ethyl(2-methoxyethyl)amino]methyl}pyridin-3-yl)-5-fluoro-4-[2-methyl-1-(tetrahydro-2H-pyran-4-yl)-1H-imidazol-5-yl]pyrimidin-2-amine], 0.28 µM. The figure for `Cc1ncc(-c2nc(Nc3ccc(CN4CCC(F)(F)CC4)nc3)ncc2F)n1C1CCOCC1` [Example 18, N-{6-[(4,4-Difluoropiperidin-1-yl)methyl]pyridin-3-yl}-5-fluoro-4-[2-methyl-1-(tetrahydro-2H-pyran-4-yl)-1H-imidazol-5-yl]pyrimidin-2-amine] is 0.042 µM; for `Cc1ncc(-c2nc(Nc3ccc(CN4CC(C)OC(C)C4)nc3)ncc2F)n1C1CCOCC1` (stereo not shown) [Example 17, N-{6-[(2,6-Dimethylmorpholin-4-yl)methyl]pyridin-3-yl}-5-fluoro-4-[2-methyl-1-(tetrahydro-2H-pyran-4-yl)-1H-imidazol-5-yl]pyrimidin-2-amine] it is 0.76 µM. The figure for `Cc1ncc(-c2nc(NC3CCN(C(=O)C(F)(F)F)CC3)ncc2F)n1C1CCOCC1` [Example 42, 5-Fluoro-4-[2-methyl-1-(tetrahydro-2H-pyran-4-yl)-1H-imidazol-5-yl]-N-[1-(trifluoroacetyl)piperidin-4-yl]pyrimidin-2-amine] is 0.091 µM.

Turning to `Cc1ccc(Nc2ncc(F)c(-c3cnc(C)n3C3CCOCC3)n2)cn1` [Example 5, 5-Fluoro-N-(6-methylpyridin-3-yl)-4-[2-methyl-1-(tetrahydro-2H-pyran-4-yl)-1H-imidazol-5-yl]pyrimidin-2-amine], the Ki is 0.028 µM. The figure for `Cc1ncc(-c2nc(NC3CCN(S(=O)(=O)Cc4ccccc4)CC3)ncc2F)n1C1CCOCC1` [Example 44, N-[1-(Benzylsulfonyl)piperidin-4-yl]-5-fluoro-4-[2-methyl-1-(tetrahydro-2H-pyran-4-yl)-1H-imidazol-5-yl]pyrimidin-2-amine] is 0.08 µM.

As usually defined, the Ki is a measure of affinity in units of concentration, obtained from inhibition or displacement.

Values taken from patent US20080188503A1, “New Compounds II” (AstraZenaca AB, priority 2006, published 2008).
